Data reported in a melting point compilation (Tetko et al.; mined from patent text by program, amines drawn as free bases though some values may be those of a salt).

| SMILES | melting point [°C] |
| --- | --- |
| Cc1c(Cl)ccc2c1[nH]c1c(CO)cccc12 | 187 |
| CSc1ccc(COc2cc(S(=O)(=O)C(C)C)cc(C#N)c2N)nc1 | 156 to 157 |
| COc1cc(C)nc(NCn2cncn2)n1 | 191 to 193 |
| COc1ccc(C(=O)CC(=O)C(F)F)cc1F | 70 to 72 |
| c1ccc2c(c1)COc1ccccc1-2 | 97 |
| COc1cc(N2CCC(N3CCOCC3)C2)ccc1Nc1ncc2ccc(-c3ccccc3OC)n2n1 (stereo not drawn) | 80 to 87 |
| c1ccc(C2CC(n3ccnc3)c3ccccc3N2)cc1 (stereo not drawn) | 170 to 172 |
| CC(=O)c1ccc(CC(=O)OC(C)(C)C)cc1 | 50 to 52 |
| Cc1ccc(C2(Br)C(=O)NC(=O)NC2=O)cc1 | 210 to 213 |
| C=CCONC(=O)c1nc(-c2ccc(Cl)c(OC)c2F)c(F)c(N)c1Cl | 184 to 186 |
| N#Cc1ccc(N2C(=O)NC3(CCSCC3)C2=O)cc1C(F)(F)F | 209 to 210 |
| NNC(=O)C1=Nc2cccc3c(=O)[nH]nc(c23)N1 | > 300 |
| COc1ccc(C(=O)NCc2ccc(NC3=NCCN3)cc2)cc1 | 160 to 161 |
| COCCOc1ccc(Nc2nc(Nc3cc4c(cc3OC)CCN(CC(=O)N(C)C)CC4)ncc2Cl)c(OC)c1 | 51 to 59 |
| CCCCC(O)c1cn(C(c2ccccc2)(c2ccccc2)c2ccccc2)cn1 (stereo not drawn) | 119 to 120 |
| CCN(C(=O)C#Cc1ccccc1)c1ccccc1C1CCCCN1C (stereo not drawn) | 104 to 106 |
| CC(C)Oc1cc(-n2c(=O)[nH]c3c(c2=O)CCC3)c(F)cc1Cl | 215 to 217 |
| CCCCc1ccc(NC=O)c([N+](=O)[O-])c1 | 72 to 73 |
| O=C1C(=Cc2cccc(OCCCCl)c2)Cc2ccccc21 | 73 to 75 |
| CCn1ncc2c(Cl)c3c(nc21)CCc1ccccc1C3=O | 111 to 113 |
| CCOC(=O)CON(C)C(=S)Nc1ccc(Cl)cc1C | 104 to 106 |
| CC(=O)NC[C@H]1CN(c2ccc(N3CCC(=C(C#N)n4ccnc4C)CC3)c(F)c2)C(=O)O1 | 204 to 206 |
| N#Cc1cc(Br)c(O)c(Cc2cc(F)cc(Cc3cc(C#N)cc(Br)c3O)c2O)c1 | 240 |
| CCOC(=O)Cc1nc(-c2ccccc2)oc1C(C)C | 37 to 38 |
| COC1OCC2C(O)C3CCCCC3CC12 (stereo not drawn) | 75 to 77 |
| N#Cc1c(N)nc2ccc(N3CCOCC3)cc2c1NCc1ccccc1 | 202 |

| SMILES | melting point [°C] |
| --- | --- |
| CCc1ccc(COc2ccc(CC(NC(=O)c3cc4cc(-c5ccc(Cl)cc5)ccc4s3)C(=O)O)cc2)cc1 (stereo not drawn) | 205 |
| CCC(Oc1ccc(C2CCOCC2)cc1)C(=O)O (stereo not drawn) | 127 |
| CC(C)(O)Cn1cnc2c(N)nc3ccccc3c21 | 270 to 272 |
| CCOC(=O)C(C)OCc1cc2cc(C(F)(F)F)ccc2n1S(=O)(=O)c1cc(OC)ccc1OC (stereo not drawn) | 130 to 132 |
| CCC(=O)C1=C(O)CC(c2ccc(Oc3ccc(S(C)(=O)=O)cc3)cc2)CC1=O (stereo not drawn) | 157 to 158 |
| CCOC(=O)c1ccc2c(c1)C(=C1CCN(C)CC1)c1ccccc1C=C2 | 94 to 96 |
| NC(=O)N1CCNC1=O | 200 |
| CCOC(=O)c1cn(C2CCCO2)c(=O)[nH]c1=O (stereo not drawn) | 125 |
| Cc1cn(-c2ccc(NC(=O)c3ccc(Cl)c(C#Cc4cnc(NC5CC5)nc4)c3)cc2C(F)(F)F)cn1 | 141 to 143 |
| C1=CNC=c2ccccc2=C1 | 128 |
| O=C(O)c1cc(-c2cccc(C(F)(F)F)c2)ns1 | 162 to 164 |
| CCCCCCCCCCCC1CC(=O)C(CCCCCC)C(=O)O1 (stereo not drawn) | 112 to 114 |
| COc1ccc(C2=NN(CCCCCCN3C(=O)c4ccccc4C3=O)C(=O)[C@H]3CC=CC[C@@H]23)cc1OC (relative stereo) | 104 to 105 |
| CCOC(=O)Nc1ccc(N(CC)CC)cc1 | 31 to 33 |
| Cc1cc(Cl)c(N=C2NCCN2)cc1[N+](=O)[O-] | 198 to 201 |
| CN(C)C=C(C#N)C(=O)Nc1ccccc1Br | 140 to 141 |
| CCc1noc(-c2cn(-c3cccc(O)c3)cn2)n1 | 214 to 215 |
| Clc1ccc(C2(c3ccc4noc(-c5ccccc5)c4c3)OCCO2)cc1 | 143 |
| CCOC(=O)C1=NN(c2ccc(Cl)cc2)C2(N3CCCC3)CCCC12 (stereo not drawn) | 95 to 96 |
| CS(=O)(=O)Nc1cnn(CCCCN2CCN(c3ncccn3)CC2)c1 | 132 |
| CCOP(=O)(OCC)C(C)NC(=O)c1cc(C)cc(OC)c1C1=CC(=O)c2c(O)cccc2C1=O (stereo not drawn) | 130 to 132 |
| OCCOc1cncc(Cl)c1 | 38 to 40 |
| O=[N+]([O-])c1cc(N2CCNCC2)ccc1S(=O)(=O)c1ccccc1 | 180 to 182 |
| CC(C)(C)c1cc(SCc2ccccc2C#N)cc(C(C)(C)C)c1O | 79 to 82 |
| NCC1Cc2cc(Cl)cc(-c3cccnc3)c2O1 (stereo not drawn) | > 250 |
| CNC1CCCN(c2ccc3c(NC(=O)CC4CCCCC4)c(Cl)ccc3n2)C1 (stereo not drawn) | 158 to 159 |

| SMILES | melting point [°C] |
| --- | --- |
| O=C(c1ccc(Cl)cc1)c1cccc(CBr)c1 | 123 to 125 |
| CCCCc1nc(C2CCCCC2)nn1Cc1ccc(-c2ccccc2-c2nnn[nH]2)cc1 | 125 to 127 |
| CC1CC(=O)c2c(C(=O)O)c[nH]c2C1 (stereo not drawn) | 210 to 211 |
| COc1cc(Cl)nc(S(C)(=O)=O)n1 | 68 to 74 |
| CCCN1CCC(C2=C(C#N)C(c3cccc4nonc34)c3c[nH]nc3N2)CC1 (stereo not drawn) | 246 |
| CCNC(=O)NC(N)=O | 158 to 160 |
| CC(Cc1ccc(O)cc1)N(CC(=O)c1ccccc1)Cc1ccc(OCc2ccccc2)c([N+](=O)[O-])c1 (stereo not drawn) | 84 to 85 |
| CCOC(=O)c1c(-c2ccc(C)cc2)c2ccncc2c(=O)n1C | 134 to 136 |
| CN1c2ccccc2N(Cc2ccccc2)C(=O)[C@H]2CCC[C@H]21 (relative stereo) | 123 to 125 |
| CCCOc1ccc(NC=C(C(=O)OCC)C(=O)OCC)cc1C1=NC(=O)C2=NN=NC2=N1 | 226 to 227 |
| O=CC1CCC(C2CC[Si](c3ccccc3)(c3ccccc3)CC2)CC1 (stereo not drawn) | 107 |
| CCN(CC)C(=O)C1=NN(c2ccccc2)C(C(N)=O)=NN1c1ccccc1 | 239 to 240 |
| O=c1[nH][nH]c(C(F)(F)F)c1Cc1ccc2c(c1)OCO2 | 196 to 197 |
| CC(C)OC(=O)c1cc(-n2c(=O)n3n(c2=S)COCC3)c(F)cc1Cl | 67 to 69 |
| CCOC(=O)c1coc(-c2ccc(CCl)cc2)n1 | 115 to 117 |
| COC(=O)c1c(CSc2nccn2C)nc2cc(OC)c(OC)cc2c1-c1ccc(OC)c(OC)c1 | 159 to 160 |
| CCOC(=O)c1cc2ccc3sc4ccccc4c3c2n1C | 85 to 86 |
| CCCCc1oc2ccccc2c1Cc1cc(Br)c(O[C@H](Cc2ccccc2)C(=O)O)c(Br)c1 | 225 to 226 |
| CC[C@@H](CN1CCCc2cc(Br)ccc21)NS(=O)(=O)c1c(C)cc(C)cc1C | 135 |
| COc1ccc2c(c1)C(C1CCC1)=NCC2 | 44 to 46 |
| CCOC(=O)c1ccc(OCCCCCCCCc2cc(C)no2)cc1 | 49 |
| COC(=O)C1=C(CC(=O)N2CCN(C)CC2)NC(CS(=O)c2ccccc2Cl)=C(C(=O)OC)C1c1c(Cl)cccc1Cl (stereo not drawn) | 180 to 181 |
| CCCc1cc(O)nc(-c2ccncc2)n1 | 173 to 174 |
| CN(c1cc(OCC(=O)O)cc2cc(C3=NCC(CN4CCSCC4)S3)[nH]c12)S(=O)(=O)c1ccccn1 (stereo not drawn) | 132 to 134 |
| OCC(O)C1OC(Sc2ccccc2)C(O)C1O (stereo not drawn) | 105 to 107 |
| COc1ccc(COc2cccnc2NC(=N)Nc2ccc(Cl)cc2)cc1 | 165 to 166 |

| SMILES | melting point [°C] |
| --- | --- |
| O=C1CCCC1n1nc(-c2c(-c3ccccc3)nn3ccccc23)ccc1=O (stereo not drawn) | 167 to 168 |
| CCOCc1cnc2c(NC(=O)c3c(Cl)cccc3Cl)cccc2c1N1CCN(C)C1=O | 173 to 177 |
| C[Si](C)(C)N(SN=C(Cl)C#N)[Si](C)(C)C | 29 to 30 |
| O=C1Cc2c(CCO)cccc2N1 | 145 to 147 |
| Cc1c(N2CCC(n3cccc3)CC2)c(F)cn2c(=O)c(C(=O)O)cc(C3CC3)c12 | 268 to 269 |
| Nc1nc(-c2ccnc(-c3ccc(C(=O)NC4CCOCC4)cc3)c2)c(-c2ccccn2)s1 | 268 |
| COC(=O)CCc1cc2cc(Cl)c(Cl)cc2n1S(=O)(=O)c1ccccc1 | 280 |
| CCc1cc2c(s1)-n1c(nnc1CNC(=O)c1cc3ccccc3n1CC(=O)O)CN=C2c1ccccc1Cl | 222 to 223 |
| Nc1nc(CN2C(=O)C3(COc4cc5c(cc43)OCO5)c3ccccc32)cs1 (stereo not drawn) | 230 to 235 |
| CCC1CCC2(C)C(=CCC3C4CCC(=O)C4(C)CCC32)C1 (stereo not drawn) | 73 to 75 |
| COc1ccc2c(c1)CCC(N(CC(=O)O)C(=O)C(C)CSC(C)=O)C2 (stereo not drawn) | 118 to 122 |
| Fc1ccc2c(c1)OCc1c(-c3nc(C4CCCC4)no3)ncn1-2 | 134 to 135 |
| CC1(C)Cc2ccsc2C=[N+]1[O-] | 136 to 138 |
| Oc1ccc(-c2cc3ncccc3cn2)cc1 | 219 to 221 |
| CC(=O)S[C@H]1CO[C@@H](c2ccccc2)OC1 | 94 to 95 |
| CS(=O)c1csc(C(=O)C2C(=O)N(C(N)=O)c3ccc(Cl)cc32)c1 (stereo not drawn) | 204 to 206 |
| O=C1CCC(c2ccc(C(=O)Nc3ccccc3F)cc2)=NN1 | 242 to 244 |
| C#CCC(=C1NCCCS1)[N+](=O)[O-] | 132 to 135 |
| Cc1ccc(S(=O)(=O)NCCC(C(=O)OC(C)(C)C)C2(CC(C)C)CCN(CCc3ccccc3)C2=O)cc1 (stereo not drawn) | 136 to 138 |
| Cc1nc(C(=O)NN(C)C)c2n1-c1ccc(Cl)cc1C(c1ccccc1F)NC2 (stereo not drawn) | 218 to 219 |
| Clc1ccc2c(NCCC34C=CCN3CCC4)ccnc2c1 (stereo not drawn) | 124 to 125 |
| O=C1Nc2cccnc2N(C(=O)N2CCCC(CCCN3CCCCC3)C2)c2ccccc21 (stereo not drawn) | 123 to 125 |
| Cc1oc(-c2ccccc2)nc1CCOc1ccc(/C=C/C#N)cn1 | 116 to 117 |
| Cc1ccnc(C2C(=O)CC(C(C)C)CC2=O)c1 (stereo not drawn) | 104 to 106 |
| OCCN1CCN(C2=Nc3ccccc3Oc3cscc32)CC1 | 187 to 192 |
